28 compounds from patent US20230365592A1 (Agios Pharmaceuticals, Inc., priority 2022, published 2023) can be followed below.

The first test concerns the target T1, human PAH with the R408W mutation (Homo sapiens, UniProt P00439, R408W).
T1 construct: expressed in transfected cells
T1 sequence (P00439 1-452 R408W): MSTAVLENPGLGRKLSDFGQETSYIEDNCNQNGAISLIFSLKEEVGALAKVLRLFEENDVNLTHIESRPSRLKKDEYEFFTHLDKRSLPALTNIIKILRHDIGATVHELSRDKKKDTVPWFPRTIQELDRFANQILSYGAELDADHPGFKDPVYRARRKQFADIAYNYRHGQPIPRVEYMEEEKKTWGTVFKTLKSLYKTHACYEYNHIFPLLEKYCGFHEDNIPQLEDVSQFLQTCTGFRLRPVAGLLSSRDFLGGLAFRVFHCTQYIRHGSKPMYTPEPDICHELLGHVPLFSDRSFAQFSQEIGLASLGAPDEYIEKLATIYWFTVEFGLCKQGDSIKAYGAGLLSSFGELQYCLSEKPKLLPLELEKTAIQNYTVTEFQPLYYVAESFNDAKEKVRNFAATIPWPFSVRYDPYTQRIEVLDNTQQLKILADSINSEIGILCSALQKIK
In words: Cell Based Phenylalanine Flux Assay.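 Further: after compound treatment, cells received sepiapterin plus isotope-labelled Phenylalanine for 4 hours, then labelled Tyrosine in the medium was quantified, 10-point 2-fold dilution series run in duplicate.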 As to conditions: A375 cells expressing R408W PAH; 24 hrs with compound, then 20 µM sepiapterin and 800 µM 13C9,15N-Phenylalanine for 4 hours; 13C-Tyrosine by LC-MS; average where tested multiple times; read-out: AC50.
As to `Fc1ncccc1-c1nnc(N2CCc3[nH]cnc3C2c2cc3ccccn3n2)o1` (stereo not shown), the AC50 is greater than 5 µM.

As to `Cc1nnc(C(=O)N2CCc3[nH]cnc3C2c2cc3ccccn3n2)o1` (stereo not shown), the AC50 was in the range of 1 to 5 µM.

Turning to `Cc1n[nH]cc1-c1nnc(C(=O)N2CCc3[nH]cnc3C2c2cc3c(F)cccn3n2)o1` (stereo not shown), the half-maximal activity concentration (AC50) fell in the range of 1 to 5 µM.

On to `COc1cccn2nc(C3c4nc[nH]c4CCN3C(=O)c3cnn4cc(N(C)C)ccc34)cc12` (stereo not shown), for which the concentration at half-maximal activity (AC50) fell in the range of 1 to 5 µM.

For the compound `Cc1cccc2cc(C3c4nc[nH]c4CCN3c3nnc(C4CC4)o3)nn12` (stereo not shown), the AC50 was greater than 5 µM.

As to `CC(C)(C)c1nnc(C(=O)N2CCc3[nH]cnc3C2c2cc3cc(F)ccn3n2)o1` (stereo not shown), the AC50 is greater than 5 µM.

Staying with this test, now noted: A375 cells expressing human PAH R408W; 24 hrs compound incubation; 13C-Tyrosine by LC-MS; average where tested multiple times; read-out: AC50.
For `Cc1cccn2nc([C@@H]3c4nc[nH]c4CCN3C(=O)c3oc(-c4ccccn4)nc3C3CC3)cc12` [Example 2120, (S)-(4-cyclopropyl-2-(pyridin-2-yl)oxazol-5-yl)(4-(4-methylpyrazolo[1,5-a]pyridin-2-yl)-1,4,6,7-tetrahydro-5H-imidazo[4,5-c]pyridin-5-yl)methanone], the AC50 is less than 0.5 µM.

For `O=C(c1nnc(C2CC2)s1)N1CCc2[nH]cnc2[C@H]1c1cc2c(F)cccn2n1` [Example 1993, (S)-(5-cyclopropyl-1,3,4-thiadiazol-2-yl)(4-(4-fluoropyrazolo[1,5-a]pyridin-2-yl)-1,4,6,7-tetrahydro-5H-imidazo[4,5-c]pyridin-5-yl)methanone], the AC50 was less than 0.5 µM.

For `Cc1cccn2nc([C@H]3c4nc[nH]c4CCN3C(=O)c3cnc(-c4cnccn4)o3)cc12` [Example 2241, (R)-(4-(4-methylpyrazolo[1,5-a]pyridin-2-yl)-1,4,6,7-tetrahydro-5H-imidazo[4,5-c]pyridin-5-yl)(2-(pyrazin-2-yl)oxazol-5-yl)methanone], the AC50 is greater than 5 µM.

In the case of `FC(F)c1cccc2cc([C@@H]3c4nc[nH]c4CCN3c3ncc(C(F)(F)F)cn3)nn12` [Example 1812, (S)-4-(7-(difluoromethyl)pyrazolo[1,5-a]pyridin-2-yl)-5-(5-(trifluoromethyl)pyrimidin-2-yl)-4,5,6,7-tetrahydro-1H-imidazo[4,5-c]pyridine], the AC50 is 0.5 to 1 µM.

Take `Cc1cc(-c2nnc(C(=O)N3CCc4[nH]cnc4[C@@H]3c3cc4c(C5CC5)cccn4n3)o2)nn1C` [Example 1932, (R)-(4-(4-cyclopropylpyrazolo[1,5-a]pyridin-2-yl)-1,4,6,7-tetrahydro-5H-imidazo[4,5-c]pyridin-5-yl)(5-(1,5-dimethyl-1H-pyrazol-3-yl)-1,3,4-oxadiazol-2-yl)methanone]: the concentration at half-maximal activity (AC50) is greater than 5 µM.

Regarding `CC1(c2nnc(N3CCc4[nH]cnc4[C@H]3c3cc4c(Cl)cccn4n3)o2)CC1` [Example 2259, (S)-2-(4-(4-chloropyrazolo[1,5-a]pyridin-2-yl)-1,4,6,7-tetrahydro-5H-imidazo[4,5-c]pyridin-5-yl)-5-(1-methylcyclopropyl)-1,3,4-oxadiazole], the AC50 lay in the range of 0.5 to 1 µM.

The test is the same for the next values; noted with them: A375 cells expressing human R408W PAH; 24 hrs compound incubation; 13C-Tyrosine by LC-MS; average where tested multiple times; read-out: AC50.
With `COc1cccn2nc([C@@H]3c4nc[nH]c4CCN3C(=O)c3cc(C)nn3C)cc12` [Example 918, (S)-(1,3-dimethyl-1H-pyrazol-5-yl)(4-(4-methoxypyrazolo[1,5-a]pyridin-2-yl)-6,7-dihydro-1H-imidazo[4,5-c]pyridin-5(4H)-yl)methanone], the AC50 was less than 0.5 µM.

Take `Cn1cc(C(=O)N2CCc3[nH]cnc3[C@@H]2c2cc3ccccn3n2)c(C(F)F)n1` [Example 663, (R)-(3-(difluoromethyl)-1-methyl-1H-pyrazol-4-yl)(4-(pyrazolo[1,5-a]pyridin-2-yl)-6,7-dihydro-1H-imidazo[4,5-c]pyridin-5(4H)-yl)methanone]: the half-maximal activity concentration (AC50) was 1 to 5 µM.

`Cc1cccn2nc([C@H]3c4nc[nH]c4CCN3C(=O)c3nnc(-c4ccc(C(F)(F)F)cn4)o3)cc12` [Example 872, (R)-(4-(4-methylpyrazolo[1,5-a]pyridin-2-yl)-6,7-dihydro-1H-imidazo[4,5-c]pyridin-5(4H)-yl)(5-(5-(trifluoromethyl)pyridin-2-yl)-1,3,4-oxadiazol-2-yl)methanone]: the AC50 is greater than 5 µM.

In the case of `Cn1ccc(-c2nnc(C(=O)N3CCc4[nH]cnc4[C@H]3c3cc4c(OC(F)(F)F)cccn4n3)o2)n1` [Example 1702, (S)-(5-(1-methyl-1H-pyrazol-3-yl)-1,3,4-oxadiazol-2-yl)(4-(4-(trifluoromethoxy)pyrazolo[1,5-a]pyridin-2-yl)-6,7-dihydro-1H-imidazo[4,5-c]pyridin-5(4H)-yl)methanone], the concentration at half-maximal activity (AC50) was less than 0.5 µM.

Regarding `O=C(c1nnc(-c2ccccn2)o1)N1CCc2[nH]cnc2[C@@H]1c1cc2cccc(C(F)(F)F)n2n1` [Example 1029, (R)-(5-(pyridin-2-yl)-1,3,4-oxadiazol-2-yl)(4-(7-(trifluoromethyl)pyrazolo[1,5-a]pyridin-2-yl)-6,7-dihydro-1H-imidazo[4,5-c]pyridin-5(4H)-yl)methanone], the concentration at half-maximal activity (AC50) was 1 to 5 µM.

Regarding `Cc1cccn2nc([C@@H]3c4nc[nH]c4CCN3C(=O)c3nnc(N4CCC(F)CC4)o3)cc12` [Example 1012, (S)-(5-(4-fluoropiperidin-1-yl)-1,3,4-oxadiazol-2-yl)(4-(4-methylpyrazolo[1,5-a]pyridin-2-yl)-6,7-dihydro-1H-imidazo[4,5-c]pyridin-5(4H)-yl)methanone], the AC50 was 0.5 to 1 µM.

With `CC(C)(F)c1nnc(C(=O)N2CCc3[nH]cnc3[C@@H]2c2cc3c(OC(F)F)cccn3n2)o1` [Example 1729, (R)-(4-(4-(difluoromethoxy)pyrazolo[1,5-a]pyridin-2-yl)-6,7-dihydro-1H-imidazo[4,5-c]pyridin-5(4H)-yl)(5-(2-fluoropropan-2-yl)-1,3,4-oxadiazol-2-yl)methanone], the AC50 was greater than 5 µM.

As for `O=C(c1ocnc1C(F)(F)F)N1CCc2[nH]cnc2[C@@H]1c1cc2c(F)cccn2n1` [Example 773, (R)-(4-(4-fluoropyrazolo[1,5-a]pyridin-2-yl)-6,7-dihydro-1H-imidazo[4,5-c]pyridin-5(4H)-yl)(4-(trifluoromethyl)oxazol-5-yl)methanone], the AC50 was in the range of 0.5 to 1 µM.

In the case of `O=C(c1ccnn1C(F)F)N1CCc2[nH]cnc2[C@H]1c1cc2ccc(F)cn2n1` [Example 1088, (S)-(1-(difluoromethyl)-1H-pyrazol-5-yl)(4-(6-fluoropyrazolo[1,5-a]pyridin-2-yl)-6,7-dihydro-1H-imidazo[4,5-c]pyridin-5(4H)-yl)methanone], the concentration at half-maximal activity (AC50) was 0.5 to 1 µM.

Turning to `CCOc1cccc2cc([C@@H]3c4nc[nH]c4CCN3C(=O)c3ocnc3C(F)F)nn12` [Example 1240, (S)-(4-(difluoromethyl)oxazol-5-yl)(4-(7-ethoxypyrazolo[1,5-a]pyridin-2-yl)-6,7-dihydro-1H-imidazo[4,5-c]pyridin-5(4H)-yl)methanone], the AC50 was less than 0.5 µM.

With `CC(C)(O)c1nc(C(F)F)c(C(=O)N2CCc3[nH]cnc3[C@@H]2c2cc3c(Cl)cccn3n2)o1` [Example 701, (R)-(4-(4-chloropyrazolo[1,5-a]pyridin-2-yl)-6,7-dihydro-1H-imidazo[4,5-c]pyridin-5(4H)-yl)(4-(difluoromethyl)-2-(2-hydroxypropan-2-yl)oxazol-5-yl)methanone], the half-maximal activity concentration (AC50) is 1 to 5 µM.

Take `COc1cccn2nc([C@@H]3c4nc[nH]c4CCN3C(=O)c3nnc(C(C)(C)C)o3)cc12` [Example 1183, (S)-(5-(tert-butyl)-1,3,4-oxadiazol-2-yl)(4-(4-methoxypyrazolo[1,5-a]pyridin-2-yl)-6,7-dihydro-1H-imidazo[4,5-c]pyridin-5(4H)-yl)methanone]: the half-maximal activity concentration (AC50) was 0.5 to 1 µM.

As for `O=C(c1nnc(-c2ncccn2)o1)N1CCc2[nH]cnc2[C@@H]1c1cc2cccc(Cl)n2n1` [Example 1392, (R)-(4-(7-chloropyrazolo[1,5-a]pyridin-2-yl)-6,7-dihydro-1H-imidazo[4,5-c]pyridin-5(4H)-yl)(5-(pyrimidin-2-yl)-1,3,4-oxadiazol-2-yl)methanone], the concentration at half-maximal activity (AC50) was in the range of 1 to 5 µM.

Consider `Cc1nc(C(C)(C)F)oc1C(=O)N1CCc2[nH]cnc2[C@H]1c1cc2cccc(C)n2n1` [Example 1252, (S)-(2-(2-fluoropropan-2-yl)-4-methyloxazol-5-yl)(4-(7-methylpyrazolo[1,5-a]pyridin-2-yl)-6,7-dihydro-1H-imidazo[4,5-c]pyridin-5(4H)-yl)methanone], for which the concentration at half-maximal activity (AC50) is less than 0.5 µM.

As for `Cc1ccc2cc([C@H]3c4nc[nH]c4CCN3C(=O)c3nnc(-c4ccn(C)n4)o3)nn2c1` [Example 815, (R)-(5-(1-methyl-1H-pyrazol-3-yl)-1,3,4-oxadiazol-2-yl)(4-(6-methylpyrazolo[1,5-a]pyridin-2-yl)-6,7-dihydro-1H-imidazo[4,5-c]pyridin-5(4H)-yl)methanone], the AC50 was greater than 5 µM.

With `Cc1cccn2nc([C@H]3c4nc[nH]c4CCN3C(=O)c3cnn4cc(-c5ccn(C)n5)ccc34)cc12` [Example 1620, (R)-(6-(1-methyl-1H-pyrazol-3-yl)pyrazolo[1,5-a]pyridin-3-yl)(4-(4-methylpyrazolo[1,5-a]pyridin-2-yl)-6,7-dihydro-1H-imidazo[4,5-c]pyridin-5(4H)-yl)methanone], the concentration at half-maximal activity (AC50) was greater than 5 µM.
